Measured values reported in patent US10870618B2, “Histone deacetylase inhibitors and uses thereof” (MUSC FOUNDATION FOR RESEARCH DEVELOPMENT, priority 2016, dated 2020).
Where two headings read alike, the source gives them in different places.

Tests used:
[1] = system: TA97a and TA100 S. typhimurium; experiment: mini-Ames test; settings: 96-well format
HDAC3 = HDAC3 (Homo sapiens (Human), UniProt O15379); experiment: Recombinant HDAC inhibition assay (HDAC3); assay type: biochemical
Procedure: Recombinant HDACs 1, 2, and 3 (BPS Biosciences) were diluted to a concentration of 1 nM in HDAC buffer. 10 uL of this solution was added in 96-well format to black U-bottom plates. 10 uL of serially diluted inhibitor was added and a 2 hour pre incubation occurred at room temperature. 50 μM (final) of Acetylated Lysine-Aminomethyl coumarin-BOC in HDAC buffer solution was added and a second 2 hour incubation occurred at room temperature. 5 mg/mL trypsin, 1 μM trichostatin A solution in HDAC buffer was added to quench the reaction. […] Data were normalized to control wells containing no inhibitor. IC50's were determined using GraphPad Prism's built in “log(inhibitor) vs. normalized response—Variable slope” function.

HEK293 Lysate = experiment: Hek293 lysate inhibition assay; assay type: biochemical
Procedure: Hek293 cells were purchased from ATCC and cultured in Dulbecco's modified eagle's medium with glutamax and 10% (v/v) FBS. Cells were plated in 75 cm^2 flasks and incubated at 37° C. and 5% CO2 until −80% confluent. Cells were harvested, washed, and pelleted, lysed before protein concentration was determined using a Tecan M200 spectrophotometer in a BCA assay, and finally stored at −80° C. Upon need, lysate was thawed and diluted to 1 mg/mL of protein concentration with HDAC Buffer. […] The solution was buffered to a pH of 8 and addition of 1 mg/mL BSA was added. 10 μL of this diluted lysate solution was added in 96-well format black U-bottom plates. Serially diluted inhibitor solution was added and a 2 hour pre incubation occurred at 37° C. 50 μM (final) of Acetylated Lysine-Aminomethyl coumarin-BOC in HDAC buffer solution was added and a second 2 hour incubation occurred at 37° C. 5 mg/mL trypsin, 1 μM trichostatin A solution in HDAC buffer was added to quench the reaction. […] Data were normalized to control wells containing no inhibitor. IC50's were determined using GraphPad Prism's built in “log(inhibitor) vs. normalized response—Variable slope” function.

HDAC1 = HDAC1 (Homo sapiens (Human), UniProt Q13547); experiment: Recombinant HDAC inhibition assay (HDAC1); assay type: biochemical
Procedure: (§1) Recombinant HDACs 1, 2, and 3 (BPS Biosciences) were diluted to a concentration of 1 nM in HDAC buffer. 10 uL of this solution was added in 96-well format to black U-bottom plates. 10 uL of serially diluted inhibitor was added and a 2 hour pre incubation occurred at room temperature. 50 μM (final) of Acetylated Lysine-Aminomethyl coumarin-BOC in HDAC buffer solution was added and a second 2 hour incubation occurred at room temperature. 5 mg/mL trypsin, 1 μM trichostatin A solution in HDAC buffer was added to quench the reaction. Fluorescence was read at 360 (ex.)/460 (em.) using a Tecan M200 Pro. Data were normalized to control wells containing no inhibitor. IC50's were determined using GraphPad Prism's built in “log(inhibitor) vs. normalized response—Variable slope” function.

HDAC2 = HDAC2 (Homo sapiens (Human), UniProt Q92769); experiment: Recombinant HDAC inhibition assay (HDAC2); assay type: biochemical
Procedure: as §1

Raw264.7 = experiment: HMGB-1 secretion by macrophages; assay type: cell-based; settings: LPS plus ATP challenge
[2] = reported, cited from earlier work
MV4-11 cells = experiment: Western blot analysis of MV4-11 cells; assay type: cell-based
Procedure: MV4-11 cells were cultured as described above. Cells were plated at 500 k cells/mL×3 mLs in clear, flat bottom 6 well plates. Cells were pre-incubated for 24 hours before addition of inhibitor at various concentrations. […] Cell pellets were lysed with RIPA buffer. RIPA buffer is comprised of 50 mM Tris Base, 150 mM NaCl, 5 mM EDTA, 0.1% (v/v) SDS, 0.5% (v/v) Sodium Deoxycholate, and 1% (v/v) Triton-x-100. After lysing, the suspension is ultra-sonicated and centrifuged at 15000 RPM for 15 minute at 4° C. 80 μL of supernatant was mixed with 40 μL of 15:85 (v/v) 3-mercaptoethanol:LDS solution. The mixture was heated at 90° C. for 15 minutes and stored for loading at −20° C. Prior to loading, the solution was flash thawed at 90° C. Lysates were run on Invitrogen NuPAGE 4-12% Bis-Tris 15 well gels at 170V for approximately 60 minutes in MES buffer. Gels were transferred to […] and ran at 30V for 180 minutes. Primary antibodies, purchased from Santa Cruz Biotechnology, were added in 5% (w/v) milk or 5% (w/v) Bovine Serum Albumin fraction V. The antibody was incubated with cellulose overnight at 4° C. before addition of secondary antibody in 5% (w/v) milk or 5% (w/v) Bovine Serum Albumin. Images were read using a GE ImageQuant LAS 4000. Global lighting adjustments of resulting images were made using Adobe Photoshop CC. Quantification was performed using Image Studio Lite 4.0.

[3] = in human, reported; cited from earlier work
[4] = system: Raw246.7 macrophage cells; experiment: NO production in activated macrophages; assay type: cell-based; settings: 100 nM, LPS and LPS+ATP
Source text: Hypo-acetylation of histone H3 and H4 were also reversed with HDAC inhibitor treatments (yellow dash box). d.

HDAC2, sequence (Q92769 whole entry): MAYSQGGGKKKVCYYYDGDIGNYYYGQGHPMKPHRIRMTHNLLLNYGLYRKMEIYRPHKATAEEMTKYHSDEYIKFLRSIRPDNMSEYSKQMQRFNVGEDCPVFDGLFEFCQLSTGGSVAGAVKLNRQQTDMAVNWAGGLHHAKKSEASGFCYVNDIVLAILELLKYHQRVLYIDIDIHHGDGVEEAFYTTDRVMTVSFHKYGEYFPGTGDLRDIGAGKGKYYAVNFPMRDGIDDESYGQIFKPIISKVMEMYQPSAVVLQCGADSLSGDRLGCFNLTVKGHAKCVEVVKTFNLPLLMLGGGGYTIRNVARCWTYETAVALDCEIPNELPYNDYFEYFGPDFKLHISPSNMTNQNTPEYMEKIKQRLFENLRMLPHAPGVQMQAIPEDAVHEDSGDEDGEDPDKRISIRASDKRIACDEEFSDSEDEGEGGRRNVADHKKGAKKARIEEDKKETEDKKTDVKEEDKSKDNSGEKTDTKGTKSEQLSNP
HDAC1, sequence (Q13547 whole entry): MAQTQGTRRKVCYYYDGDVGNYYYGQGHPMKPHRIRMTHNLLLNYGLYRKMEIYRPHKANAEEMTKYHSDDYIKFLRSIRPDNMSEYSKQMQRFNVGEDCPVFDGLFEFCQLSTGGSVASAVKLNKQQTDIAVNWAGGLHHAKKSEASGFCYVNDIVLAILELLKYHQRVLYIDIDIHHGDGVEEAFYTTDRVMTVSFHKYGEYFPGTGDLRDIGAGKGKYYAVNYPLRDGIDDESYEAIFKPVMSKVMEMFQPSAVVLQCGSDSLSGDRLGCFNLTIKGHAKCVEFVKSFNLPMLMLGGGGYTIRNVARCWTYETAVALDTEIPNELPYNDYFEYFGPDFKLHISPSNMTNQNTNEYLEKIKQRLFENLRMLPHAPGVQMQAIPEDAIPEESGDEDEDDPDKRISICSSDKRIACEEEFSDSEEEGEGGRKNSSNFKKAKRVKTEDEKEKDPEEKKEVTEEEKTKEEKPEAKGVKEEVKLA
HDAC3, sequence (O15379 whole entry): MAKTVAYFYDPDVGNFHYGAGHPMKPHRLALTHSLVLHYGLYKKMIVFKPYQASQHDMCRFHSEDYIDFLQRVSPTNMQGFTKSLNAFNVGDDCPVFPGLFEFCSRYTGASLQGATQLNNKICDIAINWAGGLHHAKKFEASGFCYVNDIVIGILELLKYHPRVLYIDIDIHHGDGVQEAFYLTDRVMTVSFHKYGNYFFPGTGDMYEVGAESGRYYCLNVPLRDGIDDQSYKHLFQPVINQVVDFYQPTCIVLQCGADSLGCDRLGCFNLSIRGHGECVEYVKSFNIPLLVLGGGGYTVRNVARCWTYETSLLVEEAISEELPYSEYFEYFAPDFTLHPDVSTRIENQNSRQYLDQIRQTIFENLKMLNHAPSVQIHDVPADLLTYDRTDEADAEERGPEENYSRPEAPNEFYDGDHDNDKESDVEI
HDAC3, sequence (Q9Y618 395-489 partner): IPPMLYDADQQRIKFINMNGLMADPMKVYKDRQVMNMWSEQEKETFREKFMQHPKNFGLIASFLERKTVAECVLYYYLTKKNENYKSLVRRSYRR

Row | SMILES | IC50 (HDAC3) [nM] | IC50 (HEK293 Lysate) [nM] | further results
1 | Nc1ccc2cc3ccccc3cc2c1 [2-aminoanthracene] | – | – | mutagenicity (mini-Ames) [1]: Ames positive
2 | CCCCNNC(=O)c1ccc(OC)cc1 [Compound 1a, N′-butyl-4-methoxybenzohydrazide] | 157 ± 28.6 | 727 ± 10.8 | –
3 | CCCCNNC(=O)c1ccc(Oc2ccccc2)cc1 [Compound 1c, N′-butyl-4-phenoxybenzohydrazide] | 312 ± 42.8 | 1690 ± 298 | –
4 | CCCCNNC(=O)c1cccnc1 [Compound 1d, N′-butylnicotinohydrazide] | 1550 ± 430 | 4680 ± 909 | –
5 | CCCCNNC(=O)/C=C/c1ccccc1 [Compound 1i, N′-butylcinnamohydrazide] | 294 ± 32.6 | 1440 ± 86.1 | –
6 | CCCCNNC(=O)c1ccc(CNC(=O)c2ccccc2)cc1 [Compound 1l, N-(4-(2-butylhydrazine-1-carbonyl)benzyl)benzamide] | – | – | IC50 (HDAC1): 18.9 ± 2.74 nM; IC50 (HDAC2): 65.2 ± 10.4 nM
7 | CCCNNC(=O)c1ccc(CNC(=O)c2ccccc2)cc1 [Compound 2d, N-(4-(2-propylhydrazine-1-carbonyl)benzyl)benzamide] | – | – | IC50 (HDAC1): 13.2 ± 2.01 nM; IC50 (HDAC2): 77.6 ± 9.52 nM
8 | CCCCCNNC(=O)c1ccc(CNC(=O)c2ccccc2)cc1 [Compound 2e, N-(4-(2-pentylhydrazine-1-carbonyl)benzyl)benzamide] | – | – | IC50 (HDAC1): 20.2 ± 5.04 nM; IC50 (HDAC2): 43.6 ± 33.2 nM
9 | O=C(NCc1ccc(C(=O)NNCCC(F)(F)F)cc1)c1ccccc1 [Compound 2f, N-(4-(2-(3,3,3-trifluoropropyl)hydrazine-1-carbonyl)benzyl)benzamide] | 69.1 ± 0.52 | 1230 ± 136 | –
10 | CCCCCCCCNNC(=O)c1ccc(CNC(=O)c2ccccc2)cc1 [Compound 2i, N-(4-(2-octylhydrazine-1-carbonyl)benzyl)benzamide] | 1090 ± 334 | > 10000 | –
11 | CCCCCCNNC(=O)c1ccc(CNC(=O)c2ccccc2)cc1 [Compound 2j, N-(4-(2-hexylhydrazine-1-carbonyl)benzyl)benzamide] | 184 ± 74.5 | 550 ± 134 | –
12 | CCCCCCCCCCNNC(=O)c1ccc(CNC(=O)c2ccccc2)cc1 [Compound 2k, N-(4-(2-decylhydrazine-1-carbonyl)benzyl)benzamide] | > 10000 | > 10000 | –
13 | CCCCNNC(=O)c1ccc(CNC(=O)/C=C/c2ccccc2)cc1 [Compound 3c, N-(4-(2-butylhydrazine-1-carbonyl)benzyl)cinnamamide] | – | – | IC50 (HDAC1): 60.2 ± 21 nM; IC50 (HDAC2): 70 ± 26.4 nM
14 | CCCCc1nc2cc(/C=C/C(=O)NO)ccc2n1CCN(CC)CC [Pracinostat] | – | – | AUCinf [2]: 1,841 ng·h/mL; Cmax [2]: 2,632 ng/mL; t1/2 [2]: 2.4 h
15 | Cc1[nH]c2ccccc2c1CCNCc1ccc(/C=C/C(=O)NO)cc1 [panobinostat] | – | – | increase in Hsp70 level (MV4-11 cells): observed; t1/2 ([2]; in rodent): 2.9 h; Cmax [2]: 116 ng/mL; t1/2 [3]: 16 h; mutagenicity (mini-Ames) [1]: Ames positive
16 | O=C(CCCCCCC(=O)Nc1ccccc1)NO [vorinostat, suberanilohydroxamic acid, reference compound] | – | – | increase in Hsp70 level (MV4-11 cells): observed; NO production, acute treatment [4]: only inhibited LPS induced NO production but not ATP driven ones; HMGB-1 secretion (Raw264.7): attenuated; t1/2 [2]: 0.2 h

Second part, led by results:

Row | IC50 (HDAC3) [nM] | SMILES | IC50 (HEK293 Lysate) [nM] | further results
17 | 1360 ± 197 | CCCCNNC(=O)c1cc2ccccc2o1 [Compound 1b, N′-butylbenzofuran-2-carbohydrazide] | 1690 ± 38 | –
18 | 904 ± 154 | CCCCNNC(=O)c1cccs1 [Compound 1f, N′-butylthiophene-2-carbohydrazide] | 3460 ± 669 | –
19 | 5000 ± 372 | CCCCNNC(=O)c1ccco1 [Compound 1g, N′-butylfuran-2-carbohydrazide] | > 10000 | –
20 | 1890 ± 227 | CCCCNNC(=O)CCc1ccccc1 [Compound 1h, N′-butyl-3-phenylpropanehydrazide] | > 10000 | –
21 | > 10000 | CCCCNNC(=O)c1cccc2ccccc12 [Compound 1j, N′-butyl-1-naphthohydrazide] | > 10000 | –
22 | 1530 ± 228 | C/C=C/CNNC(=O)c1ccc(CNC(=O)c2ccccc2)cc1 [Compound 2a, (E)-N-(4-(2-(but-2-en-1-yl)hydrazine-1-carbonyl)benzyl)benzamide] | > 10000 | HMGB-1 secretion (Raw264.7): attenuated
23 | > 10000 | CC(C)NNC(=O)c1ccc(CNC(=O)c2ccccc2)cc1 [Compound 2b, N-(4-(2-isopropylhydrazine-1-carbonyl)benzyl)benzamide] | > 10000 | –
24 | > 10000 | CC/C=N/NC(=O)c1ccc(CNC(=O)c2ccccc2)cc1 [Compound 2c, (E)-N-(4-(2-propylidenehydrazine-1-carbonyl)benzyl)benzamide] | > 10000 | –
25 | 39.93 ± 0.25 | O=C(NCc1ccc(C(=O)NNCC2CC2)cc1)c1ccccc1 [Compound 2g, N-(4-(2-(cyclopropylmethyl)hydrazine-1-carbonyl)benzyl)benzamide] | 1620 ± 196 | –
26 | 569 ± 84.9 | CCCCCCCNNC(=O)c1ccc(CNC(=O)c2ccccc2)cc1 [Compound 2h, N-(4-(2-heptylhydrazine-1-carbonyl)benzyl)benzamide] | 2160 ± 896 | –
27 | 187.3 ± 0.6 | CCNNC(=O)c1ccc(CNC(=O)c2ccccc2)cc1 [Compound 2l, N-(4-(2-ethylhydrazine-1-carbonyl)benzyl)benzamide] | 427 ± 110 | –
28 | 84.4 ± 7.22 | O=C(NCc1ccc(C(=O)NNCC2CCC2)cc1)c1ccccc1 [Compound 2m, N-(4-(2-(cyclobutylmethyl)hydrazine-1-carbonyl)benzyl)benzamide] | 1880 ± 212 | –
29 | 19.7 ± 1.41 | CCNNC(=O)c1ccc(CNC(=O)/C=C/c2ccccc2)cc1 [Compound 3a, N-(4-(2-ethylhydrazine-1-carbonyl)benzyl)cinnamamide] | 171 ± 34.2 | IC50 (HDAC1): 29.5 ± 10.7 nM; IC50 (HDAC2): 76.6 ± 9.74 nM
30 | 32.5 ± 1.15 | CCCCCNNC(=O)c1ccc(CNC(=O)/C=C/c2ccccc2)cc1 [Compound 3d, N-(4-(2-pentylhydrazine-1-carbonyl)benzyl)cinnamamide] | 691 ± 54.7 | IC50 (HDAC1): 47.4 ± 16.8 nM; IC50 (HDAC2): 99.6 ± 17.4 nM
31 | 150 ± 81.6 | CCCCCCNNC(=O)c1ccc(CNC(=O)/C=C/c2ccccc2)cc1 [Compound 3e, N-(4-(2-hexylhydrazine-1-carbonyl)benzyl)cinnamamide] | 1720 ± 139 | IC50 (HDAC1): 81.4 ± 12 nM; IC50 (HDAC2): 139 ± 29.9 nM
